Reference: PubChem BioAssay AID248 (DTP/NCI, 2004)
Several values for one entry are separate records, joined by “and”; a condition that tells them apart may be missing. Equal entries are not always repeated. Toxic doses and inconclusive results are not listed.

Test system: L1210 leukemia ip in BDF1 mice, survival T/C
Test: NCI In Vivo Anticancer Drug Screen. Data for tumor model L1210 Leukemia (intraperitoneal) in B6D2F1 (BDF1) mice
Conditions: endpoint: mean survival time, higher = longer survival
In short: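 Tumor was transplanted into mice, which were then dosed with test compound or vehicle alone. Survival was recorded for each group, and the treated figure was expressed relative to the control figure.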

[1] = dose: 50.0 mg/kg/injection, schedule: Q04DX002 (ip), vehicle: saline with Tween-80
[2] = dose: 100.0 mg/kg/injection, schedule: Q04DX002 (ip), vehicle: saline with Tween-80
[3] = dose: 200.0 mg/kg/injection, schedule: Q04DX002 (ip), vehicle: saline with Tween-80
[4] = dose: 100.0 mg/kg/injection, schedule: Q01DX009 (ip), vehicle: Klucel (hydroxypropylcellulose) (HPC)
[5] = dose: 200.0 mg/kg/injection, schedule: Q01DX009 (ip), vehicle: Klucel (hydroxypropylcellulose) (HPC)
[6] = dose: 100.0 mg/kg/injection, schedule: Q04DX002 (ip), vehicle: Klucel (hydroxypropylcellulose) (HPC)
[7] = dose: 200.0 mg/kg/injection, schedule: Q04DX002 (ip), vehicle: Klucel (hydroxypropylcellulose) (HPC)
[8] = dose: 400.0 mg/kg/injection, schedule: Q04DX002 (ip), vehicle: Klucel (hydroxypropylcellulose) (HPC)
[9] = dose: 50.0 mg/kg/injection, schedule: Q01DX009 (ip), vehicle: Klucel (hydroxypropylcellulose) (HPC)
[10] = dose: 100.0 mg/kg/injection, schedule: Q04DX003 (ip), vehicle: saline with Tween-80
[11] = dose: 200.0 mg/kg/injection, schedule: Q04DX003 (ip), vehicle: saline with Tween-80
[12] = dose: 100.0 mg/kg/injection, schedule: Q01DX009 (ip), vehicle: saline with Tween-80
[13] = dose: 200.0 mg/kg/injection, schedule: Q01DX009 (ip), vehicle: saline with Tween-80
[14] = dose: 400.0 mg/kg/injection, schedule: Q01DX009 (ip), vehicle: saline with Tween-80
[15] = dose: 200.0 mg/kg/injection, schedule: Q01DX001 (ip), vehicle: saline with Tween-80
[16] = dose: 400.0 mg/kg/injection, schedule: Q01DX001 (ip), vehicle: saline with Tween-80
[17] = dose: 50.0 mg/kg/injection, schedule: Q04DX003 (ip), vehicle: Klucel (hydroxypropylcellulose) (HPC)
[18] = dose: 100.0 mg/kg/injection, schedule: Q04DX003 (ip), vehicle: Klucel (hydroxypropylcellulose) (HPC)
[19] = dose: 400.0 mg/kg/injection, schedule: Q04DX003 (ip), vehicle: saline with Tween-80

`CC1(C)C2CCC1(C)C(C(=O)C(F)(F)F)C2=O.CC1(C)C2CCC1(C)C(C(=O)C(F)(F)F)C2=O.CC1(C)C2CCC1(C)C(C(=O)C(F)(F)F)C2=O.[Eu]` (stereo unspecified) was tested, and the T/C [1] was 105 % of control, the T/C [2] was 94 % of control and the T/C [3] was 102 % of control.

In the case of `CC(=O)COc1cccc([N+](=O)[O-])c1`, the T/C [4] is reported as 92 % of control, the T/C [5] is reported as 90 % of control and the T/C (dose: 400.0 mg/kg/injection, schedule: Q01DX009 (ip), vehicle: Klucel (hydroxypropylcellulose) (HPC)) is reported as 90 % of control.

`NC(=O)Nc1ccc(SCC(=O)O)cc1` was tested, and the T/C [6] was 106 % of control, the T/C [7] was 95 % of control and the T/C [8] was 113 % of control.

In the case of `CC1(C)C[N+](Cc2ccccc2)(Cc2ccccc2)C1`, the T/C (dose: 0.78 mg/kg/injection, schedule: Q01DX009 (ip), vehicle: saline) is reported as 100 % of control, the T/C (dose: 1.56 mg/kg/injection, schedule: Q01DX009 (ip), vehicle: saline) is reported as 102 % of control and the T/C (dose: 3.12 mg/kg/injection, schedule: Q01DX009 (ip), vehicle: saline) is reported as 100 % of control. The T/C (dose: 6.25 mg/kg/injection, schedule: Q01DX009 (ip), vehicle: saline) was 103 % of control, the T/C (dose: 12.5 mg/kg/injection, schedule: Q04DX003 (ip), vehicle: saline) was 112 % of control and the T/C (dose: 25.0 mg/kg/injection, schedule: Q04DX003 (ip), vehicle: saline) was 98 % of control. The T/C (dose: 50.0 mg/kg/injection, schedule: Q04DX003 (ip), vehicle: saline) was 97 % of control.

With `CCNC(=S)N(CC)CC` the T/C [9] was 104 % of control, the T/C [4] was 102 % of control and the T/C [10] was 100 % of control. For the same compound, the T/C [5] was 114 % of control and the T/C [11] was 103 % of control.

`CCCCNC(C)(C)C(SSS(=O)(=O)O)c1ccc(Cl)cc1` (stereo unspecified) was tested, and the T/C [12] was 96 % of control, the T/C [13] was 103 % of control and the T/C [14] was 92 % of control.

For `CCOC(=O)c1cnc(SCCN2C(=O)c3ccccc3C2=O)[nH]c1=O`, the T/C (dose: 100.0 mg/kg/injection, schedule: Q04DX003 (ip), vehicle: gum acacia) was 100 % of control, the T/C (dose: 200.0 mg/kg/injection, schedule: Q04DX003 (ip), vehicle: gum acacia) was 102 % of control and the T/C (dose: 400.0 mg/kg/injection, schedule: Q04DX003 (ip), vehicle: gum acacia) was 97 % of control.

`CC(=O)O/C=C1\CC2C3CC=C4CC(OC(C)=O)CCC4(C)C3CCC2(C)C1=O` (stereo unspecified) was tested, and the T/C [15] was 90 % of control and the T/C [16] was 90 % of control.

In the case of `O=C(CS)OCCOC(=O)CS`, the T/C [17] is reported as 105 % of control, the T/C [4] is reported as 92 % of control and the T/C [18] is reported as 101 % of control. The T/C [5] was 87 % of control, the T/C (dose: 200.0 mg/kg/injection, schedule: Q04DX003 (ip), vehicle: Klucel (hydroxypropylcellulose) (HPC)) was 106 % of control and the T/C (dose: 400.0 mg/kg/injection, schedule: Q04DX003 (ip), vehicle: Klucel (hydroxypropylcellulose) (HPC)) was 86 % of control.

In the case of `C1CC2CCCC(C1)S2`, the T/C (dose: 75.0 mg/kg/injection, schedule: Q01DX001 (ip), vehicle: saline) is reported as 102 % of control, the T/C (dose: 150.0 mg/kg/injection, schedule: Q01DX001 (ip), vehicle: saline) is reported as 100 % of control and the T/C (dose: 300.0 mg/kg/injection, schedule: Q01DX001 (ip), vehicle: saline) is reported as 96 % of control.

In the case of `CN(c1ccccc1)P(=O)(N1CC1)N1CC1`, the T/C (dose: 4.4 mg/kg/injection, schedule: Q01DX009 (ip), vehicle: carboxymethylcellulose (CMC)) is reported as 117 % of control, the T/C (dose: 6.2 mg/kg/injection, schedule: Q01DX001 (ip), vehicle: carboxymethylcellulose (CMC)) is reported as 111 % of control and the T/C (dose: 6.6 mg/kg/injection, schedule: Q01DX009 (ip), vehicle: carboxymethylcellulose (CMC)) is reported as 152 % of control. For the same compound, the T/C (dose: 12.5 mg/kg/injection, schedule: Q01DX001 (ip), vehicle: carboxymethylcellulose (CMC)) was 104 % of control, the T/C (dose: 15.0 mg/kg/injection, schedule: Q01DX009 (ip), vehicle: carboxymethylcellulose (CMC)) was 105 % of control and the T/C (dose: 22.0 mg/kg/injection, schedule: Q01DX001 (ip), vehicle: carboxymethylcellulose (CMC)) was 123 % of control. The T/C (dose: 33.0 mg/kg/injection, schedule: Q01DX001 (ip), vehicle: carboxymethylcellulose (CMC)) was 159 % of control, the T/C (dose: 50.0 mg/kg/injection, schedule: Q01DX001 (ip), vehicle: carboxymethylcellulose (CMC)) was 115 % of control and the T/C (dose: 75.0 mg/kg/injection, schedule: Q01DX001 (ip), vehicle: carboxymethylcellulose (CMC)) was 102 % of control.

In the case of `O=[N+]([O-])c1ccc2ncsc2c1`, the T/C [12] is reported as 98 % of control, the T/C [10] is reported as 112 % of control and the T/C [13] is reported as 98 % of control. The T/C [11] was 102 % of control, the T/C [14] was 98 % of control and the T/C [19] was 104 % of control.

`CC(=O)c1c(C)n(C)c2ccccc12` was tested, and the T/C (dose: 100.0 mg/kg/injection, schedule: Q01DX001 (ip), vehicle: saline with Tween-80) was 103 % of control, the T/C [6] was 95 % of control and the T/C [10] was 95 % of control. For the same compound, the T/C [15] was 101 % of control, the T/C [7] was 98 % of control and the T/C [11] was 92 % of control. The T/C [16] was 103 % of control, the T/C [8] was 109 % of control and the T/C [19] was 93 % of control.

With `O=C1/C(=C\c2ccc([N+](=O)[O-])cc2)CS(=O)(=O)C/C1=C/c1ccc([N+](=O)[O-])cc1` the T/C [9] was 97 % of control, the T/C (dose: 100.0 mg/kg/injection, schedule: Q01DX001 (ip), vehicle: saline) was 97 % of control and the T/C [4] was 93 % of control. The T/C (dose: 200.0 mg/kg/injection, schedule: Q01DX001 (ip), vehicle: saline) was 94 % of control and the T/C [5] was 92 % of control.

In the case of `Cc1ccccc1Sc1ncnc2nc[nH]c12`, the T/C [10] is reported as 91 % of control, the T/C [11] is reported as 102 % of control and the T/C [19] is reported as 101 % of control.

`CCOC(=O)C(Cc1ccc(N(CCCl)CCCl)cc1)NC=O` (stereo unspecified) was tested, and the T/C (dose: 5.0 mg/kg/injection, schedule: Q01DX Z (ip), vehicle: carboxymethylcellulose (CMC)) was 111 % of control, the T/C (dose: 10.0 mg/kg/injection, schedule: Q01DX Z (ip), vehicle: carboxymethylcellulose (CMC)) was 123 % of control and the T/C (dose: 40.0 mg/kg/injection, schedule: Q01DX Z (ip), vehicle: carboxymethylcellulose (CMC)) was 150 % of control. The T/C (dose: 88.8 mg/kg/injection, schedule: Q01DX001 (ip), vehicle: carboxymethylcellulose (CMC)) was 168 % of control, the T/C (dose: 133.0 mg/kg/injection, schedule: Q01DX001 (ip), vehicle: carboxymethylcellulose (CMC)) was 168 % of control and the T/C (dose: 200.0 mg/kg/injection, schedule: Q01DX001 (ip), vehicle: carboxymethylcellulose (CMC)) was 150 % of control and 161 % of control and 170 % of control.

`NOCc1ccc(OCc2ccccc2)cc1` was tested, and the T/C (dose: 100.0 mg/kg/injection, schedule: Q04DX003 (ip), vehicle: acetone) was 102 % of control and the T/C (dose: 200.0 mg/kg/injection, schedule: Q04DX003 (ip), vehicle: acetone) was 95 % of control.

`CCOC(=O)CCN(CCC(=O)OCC)C(C)C` was tested, and the T/C [12] was 100 % of control, the T/C [10] was 101 % of control and the T/C [13] was 90 % of control. For the same compound, the T/C [11] was 101 % of control, the T/C [14] was 98 % of control and the T/C [19] was 101 % of control.

`CN=C1N[N+]2=C(C)CCCC2S1` (stereo unspecified) was tested, and the T/C (dose: 100.0 mg/kg/injection, schedule: Q04DX003 (ip), vehicle: saline) was 95 % of control and the T/C (dose: 200.0 mg/kg/injection, schedule: Q04DX003 (ip), vehicle: saline) was 95 % of control.

In the case of `Cn1c2c(c3ccccc31)CC(C(C)(C)C)CC2` (stereo unspecified), the T/C [1] is reported as 107 % of control, the T/C [2] is reported as 100 % of control and the T/C [3] is reported as 97 % of control.

`CN(C)C(=S)Oc1ccccn1` was tested, and the T/C (dose: 25.0 mg/kg/injection, schedule: Q04DX003 (ip), vehicle: Klucel (hydroxypropylcellulose) (HPC)) was 106 % of control, the T/C [17] was 104 % of control and the T/C [18] was 102 % of control and 105 % of control.

For `CC(=S)Nc1ccccc1`, the T/C (dose: 25.0 mg/kg/injection, schedule: Q01DX009 (ip), vehicle: Klucel (hydroxypropylcellulose) (HPC)) was 101 % of control, the T/C [9] was 104 % of control and the T/C [4] was 95 % of control.

For `O=C(CSc1cc(-c2ccc(Cl)cc2)s[s+]1)c1ccccc1`, the T/C [12] was 100 % of control, the T/C [10] was 93 % of control and the T/C [13] was 97 % of control. For the same compound, the T/C [11] was 96 % of control, the T/C [14] was 103 % of control and the T/C [19] was 100 % of control.
